Data taken from patent publication US20240245741A1, “EXTRACTION METHOD USING AN AQUEOUS ALKANEDIOL” (Minasolve SAS, priority 2021, published 2024).
Values after ≈ are worked out from the molar mass of the structure shown. Like-named read-outs stand apart in the source and are kept apart here.

How the values were obtained:
physchem = conditions: for solubility at 5 min: thermodynamic from solid
Protocol: All experiments were performed at ambient temperature. Each model substance was weighted into test tubes, and a precise volume of each solvent mixture was added in order to obtain saturated solutions. The test tubes were vortexed for 5 min and subsequently centrifuged (12000 rpm during 15 min at 25° C.). An aliquot of the supernatant was diluted for UV-spectrophotometric assay. Absorbance measurements were made at wavelengths adapted to each studied molecule. High Performance Liquid Chromatography (HPLC-DAD) was used for Rosmarinic Acid (RA) quantification. Determination of Radical Scavenging Capacity was conducted through DPPH assay.
Each experiment was performed in triplicate.
The solubilisation power of aqueous Pentylene Glycol solutions (from 0 to 100% of PG) for five different model substances was compared to that of 80 wt. % aqueous ethanol.
Various mixtures of bio-based PG and bio-based caprylyl glycol (CG) were explored for dissolving hesperidin. The proportion of bio-based caprylyl glycol ranged from 0 to 30%.
Regarding solubility in the ternary mixture of PG/CG/water, six different mixtures out of the monophasic region of the ternary system were prepared (see FIG. 2): Three water-rich solvent mixtures, one with a high percentage of PG, one with a high percentage of CG and one with a similar percentage of all three components. All the alkanediols used in this study were bio-based or “green”.

[1] = Ternary phase diagrams PG/water/lipophilic ingredient (monophasic region); conditions: with 85% PG, 10% water
[2] = 25 °C, organic solvent or mixture
[3] = aqueous with cosolvent or surfactant or cyclodextrin

For `CC1=C(/C=C/C(C)=C/C=C/C(C)=C/C=C/C=C(C)/C=C/C=C(C)/C=C/C2=C(C)CCCC2(C)C)C(C)(C)CCC1` [B-C, β-carotene], the Solubility (physchem) was “completely insoluble” and the “Amount dissolved compared to hexane” value (physchem; ternary point 4 versus hexane) was “three times more”.
For `COc1cc(/C=C/C(=O)CC(=O)/C=C/c2ccc(O)c(OC)c2)ccc1O` [CU, Curcumin], the solubility at 5 min (physchem; 25 °C, aqueous with cosolvent or surfactant or cyclodextrin) was 1900 ± 45 µg/mL (≈ 5.16 mM), the solubility at 5 min (physchem; [2]) was 5850 ± 310 µg/mL (≈ 15.9 mM) and the solubility at 5 min (physchem; 25 °C, water) was 0.5 µg/mL (≈ 0.00136 mM). The “Solubility compared to 80% ethanol” value (physchem; 5 min) was 1.6 fold, the solubility at 5 min (physchem; [3]) was 3650 ± 220 µg/mL (≈ 9.91 mM) and the solubility at 5 min (physchem; organic solvent or mixture) was 7900 µg/mL (≈ 21.4 mM).
In the case of `O=C(O)c1cc(O)c(O)c(O)c1` [GA, Gallic acid], the “Solubility in 70% PG relative to water (factor)” value (physchem) is reported as roughly 12.4 times, the solubility at 5 min (physchem; [2]) is reported as 42000 ± 540 µg/mL (≈ 247 mM) and the solubility at 5 min (physchem; 25 °C, water) is reported as 10500 ± 1100 µg/mL (≈ 61.7 mM). The “Solubility in 100% PG compared to that of 70% PG” value (physchem; 5 min) was 32.3%, the “Solubilization power relative to 80% ethanol” value (physchem; 5 min) was 58.75% and the solubility at 5 min (physchem; [3]) was 95100 ± 8120 µg/mL (≈ 559 mM).
For `COc1ccc([C@@H]2CC(=O)c3c(O)cc(O[C@@H]4O[C@H](CO[C@@H]5O[C@@H](C)[C@H](O)[C@@H](O)[C@H]5O)[C@@H](O)[C@H](O)[C@H]4O)cc3O2)cc1O` [HE, Hesperidin], the “Solubilisation power relative to 80% ethanol” value (physchem; 5% CG in PG versus 80% ethanol) was 82.4%, the “Solubility compared to PG alone” value (physchem; 5% CG in PG versus PG alone) was 5 times and the Solubility (physchem; (PG:CG) solution, 1% CG) was 0.078 ± 0.005 g/litre of solvent. The Solubility (physchem; (PG:CG) solution, 5% CG) was 0.11 ± 0.006 g/litre of solvent, the Solubility (physchem; (PG:CG) solution, 10% CG) was 0.071 ± 0.003 g/litre of solvent and the Solubility (physchem; (PG:CG) solution, 20% CG) was 0.071 ± 0.007 g/litre of solvent. For the same compound, the Solubility (physchem; (PG:CG) solution, 30% CG) was 0.06 ± 0.01 g/litre of solvent, the Solubility (physchem; solvent 10% PG in water, ambient temperature) was 0.013 ± 0.003 g/litre of solvent and the Solubility (physchem; solvent 30% PG in water, ambient temperature) was 0.177 ± 0.006 g/litre of solvent. For the same compound, the Solubility (physchem; solvent 50% PG in water, ambient temperature) was 0.218 ± 0.024 g/litre of solvent, the Solubility (physchem; solvent 70% PG in water, ambient temperature) was 0.19 ± 0.011 g/litre of solvent and the Solubility (physchem; solvent 80% EtOH, ambient temperature) was 0.13 ± 0.009 g/litre of solvent. For the same compound, the Solubility (physchem; solvent 90% PG in water, ambient temperature) was 0.118 ± 0.012 g/litre of solvent, the Solubility (physchem; solvent 100% H2O, ambient temperature) was 0.00 g/litre of solvent and the Solubility (physchem; solvent 100% H2O, ambient temperature, listed as He) was “completely insoluble”. The Solubility (physchem; solvent 100% PG, ambient temperature) was 0.0216 ± 0.002 g/litre of solvent, the Solubility (physchem; solvent 100% PG, ambient temperature, listed as Hesperidin) was 0.022 ± 0.002 g/litre of solvent and the “Concentration of natural substance in a saturated solution” value (shortened to “Concentration of natural substance”) (physchem; ternary mixture No 1: 64.7% PG, 17.6% CG, 17.7% H2O) was 340 ± 30 µg/mL. The “Concentration of natural substance” value (physchem; ternary mixture No 2: 37.5% PG, 31.2% CG, 31.3% H2O) was 440 ± 30 µg/mL, the “Concentration of natural substance” value (physchem; ternary mixture No 3: 31.2% PG, 12.5% CG, 56.3% H2O) was 460 ± 10 µg/mL and the “Concentration of natural substance” value (physchem; ternary mixture No 4: 32.1% PG, 55.1% CG, 12.8% H2O) was 300 ± 30 µg/mL. The “Concentration of natural substance” value (physchem; ternary mixture No 5: 25% PG, 12.5% CG, 62.5% H2O) was 400 ± 30 µg/mL, the “Concentration of natural substance” value (physchem; ternary mixture No 6: 16.65% PG, 8.9% CG, 74.45% H2O) was 310 ± 10 µg/mL and the “Concentration relative to 80% ethanol” value (physchem; ternary mixture No. 3 versus 80% ethanol) was 3.6 times.
With `O=C(/C=C/c1ccc(O)c(O)c1)O[C@H](Cc1ccc(O)c(O)c1)C(=O)O` [RA, Rosmarinic Acid] the “Solubilisation power relative to water” value (physchem) was 27.2 times, the “Solubilisation relative to water” value (physchem) was 26.8 times and the solubility at 5 min (physchem; [2]) was 12800 ± 1200 µg/mL (≈ 35.5 mM). For the same compound, the solubility at 5 min (physchem; 25 °C, water) was 6600 ± 2400 µg/mL (≈ 18.3 mM), the “Solubility relative to solubility in 80% ethanol” value (physchem; 5 min) was 92% and the solubility at 5 min (physchem; [3]) was 302000 ± 9400 µg/mL (≈ 839 mM).
In the case of `C=C(C)[C@H]1CC=C(C)CC1` [limonene], the “Proportion in a self-stabilized ternary mixture” value [1] is reported as 5%.
